This note sets out measurements from patent US10144742B2 (Millennium Pharmaceuticals, Inc., priority 2014, dated 2018).

For orientation: IC50 means the concentration at which inhibition is half-maximal. What is called inhibition is the relative decrease from the control value, in per cent.

One test concerns the target hNAMPT protein (Homo sapiens (Human), UniProt P43490). The test is described as follows: NAMPT enzyme assay (TR-FRET/HTRF, BodiPY ligand, anti 6His-Tb). The format is binding. To be noted: for IC50: NAMPT IC50 range class, read-out: IC50; for inhibition at 1 µM: read-out: Percent Inhibition. The gist of the method:
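Compound or DMSO was incubated for 1 h at room temperature, protected from light, with BodiPY ligand and hNAMPT labelled by terbium anti-6His antibody. The 520 nm to 486 nm emission ratio after 320 nm excitation gave inhibition versus vehicle, from which concentration-response curves yielded IC50.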

For another test, the system named is PC3 cells. The test is described as follows: PC3 growth inhibition (Cell-titer glo, 72 hours). It counts as cell-based. The conditions noted are these: compound concentration 1.667 μM, PC3 cells, 72 hours, Cell-titer glo; for inhibition at 1.667 µM: Homo sapiens, PC-3, read-out: Percent Inhibition (PC3 growth inhibition). A digest of the protocol:
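Compounds in AIM serum-free medium were applied for 72 h at 37 °C, 5% CO2 to PC3 cells plated overnight from RPMI1640 culture. Luminescence after 10 min CellTiter-Glo, normalised to DMSO, gave % viability at 1 μM or 1.667 μM, or GI50/LD50.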

Sequence of hNAMPT protein (P43490 whole entry): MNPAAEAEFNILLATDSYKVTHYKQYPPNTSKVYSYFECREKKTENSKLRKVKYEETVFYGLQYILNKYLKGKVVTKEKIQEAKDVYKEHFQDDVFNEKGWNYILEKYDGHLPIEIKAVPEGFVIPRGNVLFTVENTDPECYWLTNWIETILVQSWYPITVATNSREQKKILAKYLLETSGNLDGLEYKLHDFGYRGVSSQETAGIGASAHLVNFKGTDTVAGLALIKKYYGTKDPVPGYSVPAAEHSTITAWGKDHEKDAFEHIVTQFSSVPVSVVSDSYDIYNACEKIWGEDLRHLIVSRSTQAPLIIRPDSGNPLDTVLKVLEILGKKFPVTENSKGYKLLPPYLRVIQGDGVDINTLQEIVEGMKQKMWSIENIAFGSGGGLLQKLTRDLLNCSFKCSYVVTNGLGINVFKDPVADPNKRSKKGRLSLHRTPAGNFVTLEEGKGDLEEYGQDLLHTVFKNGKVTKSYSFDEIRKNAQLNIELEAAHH

Turning to `Cc1ccc(F)cc1-c1nc2cc(C(=O)NCCCc3ncc[nH]3)ccc2nc1-c1ccc(F)cc1` [Compound I-336, 3-(5-fluoro-2-methylphenyl)-2-(4-fluorophenyl)-N-[3-(1H-imidazol-2-yl)propyl]quinoxaline-6-carboxamide], the half-maximal inhibitory concentration (IC50) at hNAMPT protein was in the range of 100 to 500 nM. The inhibition at 1 µM on hNAMPT protein (compound concentration 1 μM) is 88%. For the same compound, the inhibition at 1.667 µM in the test on PC3 cells worked out at 1%.
On to `O=C(NCCCc1ncc[nH]1)c1ccc2nc(-c3ccc(F)cc3)c(-c3cc(F)c(F)cc3F)nc2c1` [Compound I-337, 2-(4-fluorophenyl)-N-[3-(1H-imidazol-2-yl)propyl]-3-(2,4,5-trifluorophenyl)quinoxaline-6-carboxamide], for which the IC50 on hNAMPT protein was in the range of 100 to 500 nM. Moreover, the inhibition at 1 µM at hNAMPT protein (compound concentration 1 μM) was 88%. Moreover, the inhibition at 1.667 µM in the test with PC3 cells amounted to 3%.
With `CO[C@H]1C[C@H](Oc2nc3ccc(C(=O)NCCCc4ncc[nH]4)cc3nc2-c2ccc(F)cc2)C1` [Compound I-338, 3-(4-fluorophenyl)-N-[3-(1H-imidazol-2-yl)propyl]-2-[(trans-3-methoxycyclobutyl)oxy]quinoxaline-6-carboxamide], the 50% inhibitory concentration (IC50) on hNAMPT protein is less than 100 nM. Moreover, the inhibition at 1 µM on hNAMPT protein (compound concentration 1 μM) was more than 99%. In the test with PC3 cells, the inhibition at 1.667 µM is 1%.
The corresponding values for `CC(C)Oc1nc2ccc(C(=O)NCCCc3ncc[nH]3)cc2nc1-c1ccc(F)c(F)c1` [Compound I-339, 3-(3,4-difluorophenyl)-N-[3-(1H-imidazol-2-yl)propyl]-2-isopropoxyquinoxaline-6-carboxamide] are less than 100 nM, 91% and 1%.
For `O=C(NCCCc1ncc[nH]1)c1ccc2nc(-c3ccc(F)cc3)c(-c3cccs3)nc2c1` [Compound I-340, 2-(4-Fluorophenyl)-N-[3-(1H-imidazol-2-yl)propyl]-3-(2-thienyl)quinoxaline-6-carboxamide], in that order: less than 100 nM, more than 99% and 3%.
For `CC(C)(C)OCc1nc2ccc(C(=O)NCCCc3ncc[nH]3)cc2nc1-c1ccc(F)cc1` [Compound I-341, N-(3-(1H-imidazol-2-yl)propyl)-2-(tert-butoxymethyl)-3-(4-fluorophenyl)quinoxaline-6-carboxamide], in that order: 100 to 500 nM, 73% and 1%.
With `Cc1ccsc1-c1nc2cc(C(=O)NCCCc3ncc[nH]3)ccc2nc1-c1ccc(F)cc1` [Compound I-342, 2-(4-fluorophenyl)-N-[3-(1H-imidazol-2-yl)propyl]-3-(3-methyl-2-thienyl)quinoxaline-6-carboxamide], the half-inhibitory concentration (IC50) on hNAMPT protein is less than 100 nM. The inhibition at 1 µM on hNAMPT protein (compound concentration 1 μM) turned out to be 89%. Also, the inhibition at 1.667 µM in the test on PC3 cells was 3%.
For `CCOc1ccc(F)c(-c2nc3cc(C(=O)NCCCc4ncc[nH]4)ccc3nc2-c2ccc(F)cc2)c1` [Compound I-343, 3-(5-ethoxy-2-fluorophenyl)-2-(4-fluorophenyl)-N-[3-(1H-imidazol-2-yl)propyl]quinoxaline-6-carboxamide], in that order: 100 to 500 nM, 82% and 1%.
With `COc1cc(-c2nc3cc(C(=O)NCCCc4ncc[nH]4)ccc3nc2OC(C)C)ccc1F` [Compound I-344, 3-(4-fluoro-3-methoxyphenyl)-N-[3-(1H-imidazol-2-yl)propyl]-2-isopropoxyquinoxaline-6-carboxamide], the 50% inhibitory concentration (IC50) on hNAMPT protein is less than 100 nM. Moreover, on hNAMPT protein (compound concentration 1 μM), the “Percent Inhibition” value is given as more than 99%. Further, the “Percent Inhibition (PC3 growth inhibition)” value with PC3 cells was found to be 1%.
With `CN1CCC(Oc2nc3ccc(C(=O)NCCCc4ncc[nH]4)cc3nc2-c2ccc(F)cc2)CC1` [Compound I-345, 3-(4-fluorophenyl)-N-[3-(1H-imidazol-2-yl)propyl]-2-[(1-methylpiperidin-4-yl)oxy]quinoxaline-6-carboxamide], the concentration for half-maximal inhibition (IC50) at hNAMPT protein was less than 100 nM. Besides, the inhibition at 1 µM on hNAMPT protein (compound concentration 1 μM) stood at 98%. In addition, the inhibition at 1.667 µM in the test on PC3 cells worked out at 2%.
For the compound `CN1CCCCC1COc1nc2ccc(C(=O)NCCCc3ncc[nH]3)cc2nc1-c1ccc(F)cc1` (stereo not drawn) [Compound I-346, 3-(4-fluorophenyl)-N-[3-(1H-imidazol-2-yl)propyl]-2-[(1-methylpiperidin-2-yl)methoxy]quinoxaline-6-carboxamide], the half-inhibitory concentration (IC50) on hNAMPT protein was less than 100 nM. The inhibition at 1 µM at hNAMPT protein (compound concentration 1 μM) stood at 98%. In the test on PC3 cells, the inhibition at 1.667 µM was found to be 3%.
For the compound `O=C(NCCCc1ncc[nH]1)c1ccc2nc(OCc3cn[nH]c3)c(-c3ccc(F)cc3)nc2c1` [Compound I-347, 3-(4-fluorophenyl)-N-[3-(1H-imidazol-2-yl)propyl]-2-(1H-pyrazol-4-ylmethoxy)quinoxaline-6-carboxamide], the IC50 on hNAMPT protein is less than 100 nM. Besides, the inhibition at 1 µM at hNAMPT protein (compound concentration 1 μM) amounted to 97%. The inhibition at 1.667 µM in the test with PC3 cells was found to be 33%.
As to `O=C(NCCCc1ncc[nH]1)c1ccc2nc(OCC3COC3)c(-c3ccc(F)cc3)nc2c1` [Compound I-348, 3-(4-fluorophenyl)-N-[3-(1H-imidazol-2-yl)propyl]-2-(oxetan-3-ylmethoxy)quinoxaline-6-carboxamide], the half-inhibitory concentration (IC50) on hNAMPT protein was less than 100 nM. For the same compound, at hNAMPT protein (compound concentration 1 μM), the inhibition at 1 µM is more than 99%. In addition, the inhibition at 1.667 µM with PC3 cells was 3%.
In the case of `CC(Oc1nc2ccc(C(=O)NCCCc3ncc[nH]3)cc2nc1-c1ccc(F)cc1)c1ccccc1` (stereo not drawn) [Compound I-349, 3-(4-fluorophenyl)-N-[3-(1H-imidazol-2-yl)propyl]-2-(1-phenylethoxy)quinoxaline-6-carboxamide], the concentration for half-maximal inhibition (IC50) at hNAMPT protein was less than 100 nM. Further, the inhibition at 1 µM at hNAMPT protein (compound concentration 1 μM) came out at 91%. In addition, in the test on PC3 cells, the inhibition at 1.667 µM was 3%.
For `O=C(NCCCc1ncc[nH]1)c1ccc2nc(-c3ccc(F)cc3)c(-c3cccc(OC(F)(F)F)c3)nc2c1` [Compound I-350, 2-(4-fluorophenyl)-N-[3-(1H-imidazol-2-yl)propyl]-3-[3-(trifluoromethoxy)phenyl]quinoxaline-6-carboxamide], in that order: 100 to 500 nM, 86% and 2%.
For `O=C(NCCCc1ncc[nH]1)c1ccc2nc(OCc3ccoc3)c(-c3ccc(F)cc3)nc2c1` [Compound I-351, 3-(4-fluorophenyl)-2-(3-furylmethoxy)-N-[3-(1H-imidazol-2-yl)propyl]quinoxaline-6-carboxamide], in that order: less than 100 nM, 96% and 3%.
For `O=C(NCCCc1ncc[nH]1)c1ccc2nc(O[C@@H]3CCOC3)c(-c3ccc(Cl)cc3)nc2c1` [Compound I-352, 3-(4-chlorophenyl)-N-[3-(1H-imidazol-2-yl)propyl]-2-[(3R)-tetrahydrofuran-3-yloxy]quinoxaline-6-carboxamide], in that order: less than 100 nM, 99% and 2%.
On to `O=C(NCCCc1ncc[nH]1)c1ccc2nc(-c3ccc(F)cc3)c(-c3cc(Cl)ccc3Cl)nc2c1` [Compound I-353, 3-(2,5-dichlorophenyl)-2-(4-fluorophenyl)-N-[3-(1H-imidazol-2-yl)propyl]quinoxaline-6-carboxamide], for which the IC50 at hNAMPT protein was less than 100 nM. The inhibition at 1 µM at hNAMPT protein (compound concentration 1 μM) was found to be 97%. The inhibition at 1.667 µM in the test with PC3 cells is 2%.
The corresponding values for `COc1ccc(Cl)c(-c2nc3cc(C(=O)NCCCc4ncc[nH]4)ccc3nc2-c2ccc(F)cc2)c1` [Compound I-354, 3-(2-chloro-5-methoxyphenyl)-2-(4-fluorophenyl)-N-[3-(1H-imidazol-2-yl)propyl]quinoxaline-6-carboxamide] are less than 100 nM, 97% and 2%.
For `CCOc1cc(-c2nc3cc(C(=O)NCCCc4ncc[nH]4)ccc3nc2-c2ccc(F)cc2)ccc1F` [Compound I-355, 3-(3-ethoxy-4-fluorophenyl)-2-(4-fluorophenyl)-N-[3-(1H-imidazol-2-yl)propyl]quinoxaline-6-carboxamide], in that order: less than 100 nM, more than 99% and 2%.
For `O=C(NCCCc1ncc[nH]1)c1ccc2nc(OCc3c[nH]cn3)c(-c3ccc(F)cc3)nc2c1` [Compound I-356, 3-(4-fluorophenyl)-2-(1H-imidazol-4-ylmethoxy)-N-[3-(1H-imidazol-2-yl)propyl]quinoxaline-6-carboxamide], in that order: 500 to 1000 nM, 63% and 4%.
As to `O=C(NCCCc1ncc[nH]1)c1ccc2nc(C3CC3)c(-c3ccc(F)cc3)nc2c1` [Compound I-357, 2-cyclopropyl-3-(4-fluorophenyl)-N-[3-(1H-imidazol-2-yl)propyl]quinoxaline-6-carboxamide], at hNAMPT protein, the half-inhibitory concentration (IC50) was in the range of 100 to 500 nM. Also, the inhibition at 1 µM on hNAMPT protein (compound concentration 1 μM) turned out to be 83%. In the test on PC3 cells, the inhibition at 1.667 µM came to 1%.
Consider `CCCOc1nc2ccc(C(=O)NCCCc3nnc[nH]3)cc2nc1-c1ccc(F)cc1` [Compound I-358, 3-(4-fluorophenyl)-2-propoxy-N-[3-(4H-1,2,4-triazol-3-yl)propyl]quinoxaline-6-carboxamide], for which the half-maximal inhibitory concentration (IC50) on hNAMPT protein is 100 to 500 nM. In addition, at hNAMPT protein (compound concentration 1 μM), the inhibition at 1 µM was 78%. The inhibition at 1.667 µM in the test with PC3 cells worked out at 3%.
The corresponding values for `CC(C)Oc1nc2ccc(C(=O)NCCCc3ccc(N)nc3)cc2nc1-c1ccc(F)cc1` [Compound I-359, N-[3-(6-aminopyridin-3-yl)propyl]-3-(4-fluorophenyl)-2-isopropoxyquinoxaline-6-carboxamide] are 500 to 1000 nM, 46% and 3%.
